These results are taken from patent US20210069295A1, “GALECTINS CONTROL MTOR IN RESPONSE TO ENDOMEMBRANE DAMAGE AND PROVIDE A MECHANISM AND TARGET FOR THE TREATMENT OF AUTOPHAGY-RELATED DISEASES” (STC. UNM, priority 2017, published 2021).

Peptide text beside a SMILES is read from it.

What all share (format): cell-based
In assay [1] the test system is mTOR. The experiment in a line: mTOR activity in human peripheral blood monocyte derived macrophages. The conditions noted are these: 100 μM GPN, 1 h. As to the method:
(§1) (A) Dose-response analysis of mTOR activity in HEK293T cells treated with glycyl-L-phenylalanine 2-naphththylamide (GPN) in full medium for 1 h. mTOR activity was monitored by inununoblotting analysis of S6K1 (T389) and ULK1 (S757) phosphorylation (phosphorylated S6K (T389) and ULK1 (S757) relative to total S6K and ULK1, respectively). (B) Analysis of mTOR activity (as in A) after GPN washout. HEK293T cells were treated with 100 μM GPN for 1 h followed by 1 h washout in full medium. Data, means±SEM (n=3), **p<0.01, ANOVA. (C) Analysis of mTOR activity (as in A) in HEK293T cells treated with increasing doses of silica in full medium for 1 h. (D) HEK293T cells were treated with lysosomal damaging agents (LLOMe, Leu-Leu-OMe) for 1 h in full medium and status of acidified organelles assessed by quantifying LysoTracker Red DND-99 puncta using automated high-content imaging and analysis (HC). […] Data, means±SEM, n≥3 independent experiments (500 primary objects counted per well; ≥5 wells/sample per each experiment), **p<0.01, ANOVA. […] Human peripheral blood monocyte derived macrophages were treated with 100 μM GPN in full medium or starved in EBSS for 1 h, and mTOR activity measured as in A. None-treated cells were as control (Ctrl). […] Data, means±SEM, n≥3 independent experiments (500 primary objects counted per well; ≥5 wells/sample per each experiment) **p<0.01, ANOVA. […]

The test system of assay [2] is mTOR. Kind of assay: mTOR localization relative to LAMP2-positive lysosomes (HC and confocal microscopy). As to the method: (A) Dose-response analysis of mTOR activity in HEK293T cells treated with glycyl-L-phenylalanine 2-naphththylamide (GPN) in full medium for 1 h. mTOR activity was monitored by inununoblotting analysis of S6K1 (T389) and ULK1 (S757) phosphorylation (phosphorylated S6K (T389) and ULK1 (S757) relative to total S6K and ULK1, respectively). (B) Analysis of mTOR activity (as in A) after GPN washout. HEK293T cells were treated with 100 μM GPN for 1 h followed by 1 h washout in full medium. Data, means±SEM (n=3), **p<0.01, ANOVA. (C) Analysis of mTOR activity (as in A) in HEK293T cells treated with increasing doses of silica in full medium for 1 h. (D) HEK293T cells were treated with lysosomal damaging agents (LLOMe, Leu-Leu-OMe) for 1 h in full medium and status of acidified organelles assessed by quantifying LysoTracker Red DND-99 puncta using automated high-content imaging and analysis (HC). None-treated cells were as control (Ctrl). White masks, algorithm defined cell boundaries (primary objects); yellow masks, computer-identified LysoTracker Red puncta (target objects). Data, means±SEM, n≥3 independent experiments (500 primary objects counted per well; ≥5 wells/sample per each experiment), **p<0.01, ANOVA. (E) Analysis of mTOR activity in primary human macrophages treated with GPN. Human peripheral blood monocyte derived macrophages were treated with 100 μM GPN in full medium or starved in EBSS for 1 h, and mTOR activity measured as in A. None-treated cells were as control (Ctrl). (F) Quantification by HC of overlaps between mTOR and LAMP2 (representative images shown in FIG. S1D) in HeLa cells treated with lysosomal damaging agents for 1 h in full medium. Data, means±SEM, n≥3 independent experiments (500 primary objects counted per well; ≥5 wells/sample per each experiment) **p<0.01, ANOVA. (G) Immunofluorescence confocal microscopy visualization of mTOR localization relative to LAMP2-positive lysosomes. […] (H) Analysis of TFEB nuclear translocation in HeLa cells treated with 100 μM GPN in full medium for 1 h, and the nuclear translocation of TFEB was measured by HC (Nuclei, Hoechst 33342, blue pseudocolor; TFEB red fluorescence, Alexa-568). […] White masks, computer algorithm-defined cell boundaries (primary objects); pink masks, computer-identified nuclear TFEB based on the average intensity of Alexa-568 fluorescence. Data, means±SEM, n≥3 independent experiments (500 primary objects counted per well; ≥5 wells/sample per each experiment), **p<0.01, ANOVA. (I) HeLa cells were treated as indicated in full medium for 1 h, and LC3 puncta were quantified by HC. […] Data, means±SEM, n≥3 independent experiments (500 primary objects counted per well; ≥5 wells/sample per each experiment), **p<0.01, ANOVA. […]

A further assay has as its system TFEB. Kind of assay: TFEB nuclear translocation by high-content microscopy in HeLa cells. The note with it: 1 h full medium. As to the method: as §1

Regarding `NCC(=O)N[C@@H](Cc1ccccc1)C(=O)Nc1ccc2ccccc2c1` [GPN, glycyl-L-phenylalanine 2-naphththylamide] (HELM PEPTIDE1{G.F.[c1ccc2cc(N[*:1])ccc2c1]}$$$$V2.0), the “mTOR activity in primary cells” value in the assay on mTOR [1] is reported as “confirmed”. Also, in the assay on mTOR [2] (HEK293T stably expressing RagBQ99L, 100 μM GPN 1 h), the “mTOR localization in cells expressing RagBQ99L” value is recorded as “remained on lysosomes”. Besides, in the assay on mTOR [2] (HeLa cells, 1 h full medium), the “mTOR localization (lysosomes vs cytosol, overlap with LAMP2)” value is given as “translocated from lysosomes to the cytosol”. The TFEB nuclear translocation entry with TFEB is reported as “translocated to the nucleus from the cytoplasm”.
